Reference: ChEMBL document CHEMBL1201862, “PubChem BioAssay data set” (2004)
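In this assay, cells in 96-well plates receive the compound at five concentrations for 48 hours. Endpoints are linearly interpolated between the surrounding concentrations. GI50 = concentration required for 50% inhibition of growth.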 Activity calls are given as the source filed them. No stated cut-off is given here; in the data, active = GI50 up to about 1.1 µM and inactive = higher.

How the values were obtained:
Assay in all cases: NCI anticancer screen, dose series, 48 h
IGROV-1 = tested on: IGROV-1
MOLT-4 = tested on: MOLT-4
RXF 393 = tested on: RXF 393
CAKI-1 = tested on: CAKI-1
OVCAR-3 = tested on: OVCAR-3
SK-MEL-28 = tested on: SK-MEL-28
EKVX = tested on: EKVX
SN12C = tested on: SN12C
K562 = tested on: K562
ACHN = tested on: ACHN
OVCAR-8 = tested on: OVCAR-8
DLD-1 = tested on: DLD-1
SNB-75 = tested on: SNB-75
HCT-15 = tested on: HCT-15
UACC-257 = tested on: UACC-257
RPMI-8226 = tested on: RPMI-8226
HL-60 = tested on: HL-60
MDA-N = tested on: MDA-N
BT-549 = tested on: BT-549
T47D = tested on: T47D

| SMILES | GI50 (IGROV-1) | GI50 (MOLT-4) | GI50 (RXF 393) | GI50 (CAKI-1) | GI50 (OVCAR-3) | GI50 (SK-MEL-28) | GI50 (EKVX) | GI50 (SN12C) | GI50 (K562) | GI50 (ACHN) | GI50 (OVCAR-8) | GI50 (DLD-1) | GI50 (SNB-75) | GI50 (HCT-15) | GI50 (UACC-257) | GI50 (RPMI-8226) | GI50 (HL-60) | GI50 (MDA-N) | GI50 (BT-549) | GI50 (T47D) |
| --- | --- | --- | --- | --- | --- | --- | --- | --- | --- | --- | --- | --- | --- | --- | --- | --- | --- | --- | --- | --- |
| CC12Oc3ccc4ccccc4c3C1c1c(ccc3ccccc13)O2 (stereo unspecified) | > 100 µM (inactive) | > 100 µM (inactive) | > 100 µM (inactive) | > 100 µM (inactive) | > 100 µM (inactive) | > 100 µM (inactive) | > 100 µM (inactive) | > 100 µM (inactive) | > 100 µM (inactive) | > 100 µM (inactive) | > 100 µM (inactive) | > 100 µM (inactive) | 43.3 µM (inactive) | – | – | – | – | – | – | – |
| Cc1cc2c(C)nn(Cc3ccccc3)c2c(C(N)=O)c1C | > 100 µM (inactive) | 62.1 µM (inactive) | – | – | > 100 µM (inactive) | > 100 µM (inactive) | > 100 µM (inactive) | > 100 µM (inactive) | > 100 µM (inactive) | > 100 µM (inactive) | > 100 µM (inactive) | > 100 µM (inactive) | 21.6 µM (inactive) | > 100 µM | > 100 µM (inactive) | > 100 µM (inactive) | – | – | – | – |
| C[N+](C)(C)CC(=O)N/N=C(/Cc1nc2c3c(ccc2nc1O)C(=O)c1ccccc1C3=O)C(=O)Nc1ccc(Cl)c(Cl)c1 | 12.7 µM (inactive) | 19.9 µM (inactive) | 23.2 µM (inactive) | 15.5 µM (inactive) | 30.2 µM (inactive) | > 100 µM (inactive) | 13.1 µM (inactive) | 86.9 µM (inactive) | 53.5 µM (inactive) | 24 µM (inactive) | 50.5 µM (inactive) | 17.9 µM (inactive) | – | – | > 100 µM (inactive) | 17.4 µM (inactive) | 8.15 µM (inactive) | – | – | – |
| O=C(Cc1nc2ccccc2c(=O)n1-c1c(Cl)cccc1Cl)c1ccncc1 | 22.4 µM (inactive) | 19 µM (inactive) | 18.5 µM (inactive) | 23.6 µM (inactive) | 21.3 µM (inactive) | 21.1 µM (inactive) | 61.5 µM (inactive) | 85.9 µM (inactive) | 26.7 µM (inactive) | 17.9 µM (inactive) | 29.7 µM (inactive) | 26.7 µM (inactive) | 25.1 µM (inactive) | 24.7 µM | 22.3 µM (inactive) | – | 12 µM (inactive) | – | – | – |
| Clc1ncnc2c1ncn2CCCCCCCCCCCCn1cnc2c(Cl)ncnc21 | 4.69 µM (inactive) | 6.78 µM (inactive) | 16.8 µM (inactive) | 3.4 µM (inactive) | 11.2 µM (inactive) | 2.6 µM (inactive) | 16.7 µM (inactive) | 18.6 µM (inactive) | 1.15 µM (inactive) | 14.5 µM (inactive) | 11.1 µM (inactive) | 7.94 µM (inactive) | – | 13.1 µM | 2.86 µM (inactive) | 2.13 µM (inactive) | 2.7 µM (inactive) | – | – | – |
| Cn1c(=O)oc2cc(C3CCC(=O)N3Cc3ccc(Cl)cc3)ccc21 (stereo unspecified) | > 100 µM (inactive) | > 100 µM (inactive) | 29.6 µM (inactive) | > 100 µM (inactive) | – | > 100 µM (inactive) | > 100 µM (inactive) | > 100 µM (inactive) | > 100 µM (inactive) | > 100 µM (inactive) | > 100 µM (inactive) | 92 µM (inactive) | 47.9 µM (inactive) | > 100 µM | > 100 µM (inactive) | > 100 µM (inactive) | > 100 µM (inactive) | – | – | – |
| COc1ccc(CC2(Cc3ccc(OC)cc3)CCOC2=O)cc1 | > 100 µM (inactive) | > 100 µM (inactive) | – | 67 µM (inactive) | > 100 µM (inactive) | > 100 µM (inactive) | 44.2 µM (inactive) | > 100 µM (inactive) | > 100 µM (inactive) | 94.8 µM (inactive) | > 100 µM (inactive) | > 100 µM (inactive) | 14.7 µM (inactive) | – | > 100 µM (inactive) | > 100 µM (inactive) | > 100 µM (inactive) | – | – | – |
| C[N+](C)(C)CC1CCC/C1=N\OC(=O)c1ccccc1 (stereo unspecified) | > 100 µM (inactive) | > 100 µM (inactive) | > 100 µM (inactive) | – | > 100 µM (inactive) | > 100 µM (inactive) | > 100 µM (inactive) | > 100 µM (inactive) | > 100 µM (inactive) | > 100 µM (inactive) | > 100 µM (inactive) | > 100 µM (inactive) | > 100 µM (inactive) | > 100 µM | > 100 µM (inactive) | > 100 µM (inactive) | > 100 µM (inactive) | – | – | – |
| c1ccc([P+](CCC[P+](c2ccccc2)(c2ccccc2)c2ccccc2)(c2ccccc2)c2ccccc2)cc1 | 41.7 µM (inactive) | – | 64.4 µM (inactive) | > 100 µM (inactive) | 13.5 µM (inactive) | 33.5 µM (inactive) | > 100 µM (inactive) | 33.3 µM (inactive) | 8.2 µM (inactive) | > 100 µM (inactive) | 32.6 µM (inactive) | 56.6 µM (inactive) | 31.8 µM (inactive) | – | 24 µM (inactive) | 7.38 µM (inactive) | 10.7 µM (inactive) | – | – | – |
| O=C(/C=C/c1ccccc1Cl)c1ccc(Cl)cc1Cl | 14.5 µM (inactive) | 3.91 µM (inactive) | – | 14.4 µM (inactive) | 17.7 µM (inactive) | 11.6 µM (inactive) | 18.9 µM (inactive) | 17.9 µM (inactive) | 3.02 µM (inactive) | 18.1 µM (inactive) | 15.7 µM (inactive) | 17.3 µM (inactive) | 18.7 µM (inactive) | 11.7 µM | 15.9 µM (inactive) | 9.55 µM (inactive) | 16.5 µM (inactive) | – | – | – |
| CCOC(=O)/C(=C\c1ccc[nH]1)C(=O)c1ccccc1 | – | 43.3 µM (inactive) | 38.2 µM (inactive) | > 100 µM (inactive) | > 100 µM (inactive) | > 100 µM (inactive) | > 100 µM (inactive) | > 100 µM (inactive) | 35.2 µM (inactive) | > 100 µM (inactive) | > 100 µM (inactive) | > 100 µM (inactive) | 13.9 µM (inactive) | > 100 µM | > 100 µM (inactive) | 82 µM (inactive) | 23.3 µM (inactive) | – | – | – |
| C/C(=N\NC(=N)N)C(CN1CCCCC1)C(c1ccccc1)c1c(O)c2ccccc2oc1=O (stereo unspecified) | > 100 µM (inactive) | – | > 100 µM (inactive) | > 100 µM (inactive) | > 100 µM (inactive) | > 100 µM (inactive) | > 100 µM (inactive) | > 100 µM (inactive) | > 100 µM (inactive) | > 100 µM (inactive) | > 100 µM (inactive) | > 100 µM (inactive) | > 100 µM (inactive) | > 100 µM | > 100 µM (inactive) | > 100 µM (inactive) | > 100 µM (inactive) | – | – | – |
| CCOC(=O)NC(=O)c1cn(CCN2CCN(c3ncnc4[nH]cnc34)CC2)c(=O)[nH]c1=O | > 100 µM (inactive) | > 100 µM (inactive) | > 100 µM (inactive) | – | > 100 µM (inactive) | > 100 µM (inactive) | > 100 µM (inactive) | > 100 µM (inactive) | > 100 µM (inactive) | > 100 µM (inactive) | > 100 µM (inactive) | > 100 µM (inactive) | > 100 µM (inactive) | > 100 µM | > 100 µM (inactive) | > 100 µM (inactive) | > 100 µM (inactive) | – | – | – |
| C#CCNC(=O)ON1C(=O)CCC1=O | > 100 µM (inactive) | > 100 µM (inactive) | > 100 µM (inactive) | – | > 100 µM (inactive) | > 100 µM (inactive) | > 100 µM (inactive) | > 100 µM (inactive) | > 100 µM (inactive) | > 100 µM (inactive) | > 100 µM (inactive) | > 100 µM (inactive) | > 100 µM (inactive) | > 100 µM | > 100 µM (inactive) | > 100 µM (inactive) | > 100 µM (inactive) | – | – | – |
| CC1=C(C(=O)NCc2ccccc2)C(c2ccc(N(C)C)cc2)C(C(=O)NCc2ccccc2)=C(C)N1 | > 100 µM (inactive) | > 100 µM (inactive) | 11.7 µM (inactive) | > 100 µM (inactive) | > 100 µM (inactive) | > 100 µM (inactive) | > 100 µM (inactive) | > 100 µM (inactive) | > 100 µM (inactive) | > 100 µM (inactive) | > 100 µM (inactive) | > 100 µM (inactive) | 29.3 µM (inactive) | – | > 100 µM (inactive) | > 100 µM (inactive) | > 100 µM (inactive) | – | – | – |
| Nc1nc(Cl)cc(NCC2(CO)CCCCC2)n1 | > 100 µM (inactive) | 59.4 µM (inactive) | > 100 µM (inactive) | > 100 µM (inactive) | > 100 µM (inactive) | > 100 µM (inactive) | 67 µM (inactive) | 81.1 µM (inactive) | 94 µM (inactive) | > 100 µM (inactive) | > 100 µM (inactive) | – | > 100 µM (inactive) | > 100 µM | 64.7 µM (inactive) | 97.5 µM (inactive) | > 100 µM (inactive) | > 100 µM (inactive) | > 100 µM (inactive) | 38.5 µM (inactive) |
| COC(=O)CCCN(C)c1nc(N)n[nH]1 | > 100 µM (inactive) | > 100 µM (inactive) | > 100 µM (inactive) | – | > 100 µM (inactive) | > 100 µM (inactive) | > 100 µM (inactive) | > 100 µM (inactive) | > 100 µM (inactive) | > 100 µM (inactive) | > 100 µM (inactive) | > 100 µM (inactive) | 66.2 µM (inactive) | > 100 µM | > 100 µM (inactive) | > 100 µM (inactive) | > 100 µM (inactive) | – | – | – |
| Cc1cc(Cl)ccc1NC(=O)CCCC(=O)C1CCCC1=O (stereo unspecified) | > 100 µM (inactive) | > 100 µM (inactive) | – | > 100 µM (inactive) | > 100 µM (inactive) | – | > 100 µM (inactive) | > 100 µM (inactive) | > 100 µM (inactive) | > 100 µM (inactive) | > 100 µM (inactive) | > 100 µM (inactive) | – | > 100 µM | > 100 µM (inactive) | > 100 µM (inactive) | > 100 µM (inactive) | – | – | – |
